Measured values taken from ChEMBL document CHEMBL1158234, “Halistanol disulfate B, a novel sulfated sterol from the sponge Pachastrella sp.: inhibitor of endothelin converting enzyme” (J Nat Prod, 1996).
Calls of active or inactive are those of the source. No cut-off for these calls is given here.

Key:
[1] = (§1) Inhibition of recombinant ECE expressed in african green monkey COS cells assessed as endothelin formation by EIA assay; assay type: cell-based
[2] = tested on: COS; test: as §1; assay type: cell-based

Compound	IC50 [1] [nM]	Activity [2]
C=CCCC[C@@H](C)[C@H]1CC[C@H]2[C@@H]3CC[C@H]4C[C@H](OS(=O)(=O)O)[C@@H](OS(=O)(=O)O)C[C@]4(C)[C@H]3CC[C@]12C [HALISTANOL DISULFATE B]	2100	–
C[C@H](CC[C@H](C)C(C)(C)C)[C@H]1CC[C@H]2[C@@H]3C[C@H](OS(=O)(=O)O)[C@H]4C[C@H](OS(=O)(=O)O)[C@@H](OS(=O)(=O)O)C[C@]4(C)[C@H]3CC[C@]12C	–	Active
O=C(NCCSSCCNC(=O)/C(Cc1ccc(Br)c(OS(=O)(=O)O)c1)=N/O)/C(Cc1ccc(OS(=O)(=O)O)c(Br)c1)=N/O	–	Active
O=C(NCCSSCCNC(=O)/C(Cc1cccc(OS(=O)(=O)O)c1Br)=N/O)/C(Cc1cc(Br)c(O)c(-c2ccc(C/C(=N\O)C(=O)NCCSSCCNC(=O)/C(Cc3ccc(OS(=O)(=O)O)c(Br)c3)=N/O)c(Br)c2O)c1)=N/O	–	Active
C=CCCC[C@@H](C)[C@H]1CC[C@H]2[C@@H]3CC[C@H]4C[C@H](O)[C@@H](O)C[C@]4(C)[C@H]3CC[C@]12C	–	inactive
